{"source": "patent US20170173114A1", "about": "“METHODS AND COMPOSITIONS FOR INDUCTION OF UCP1 EXPRESSION” (Joslin Diabetes Center, Inc., priority 2014, published 2017)", "key": {"[1]": {"molecular_target": "T1, (Mus musculus, UniProt Q923E4)", "T1 construct": "endogenous in cells; host or cells: WT-1 murine brown preadipocytes", "T1 sequence (Q923E4 2-737 limits assumed)": "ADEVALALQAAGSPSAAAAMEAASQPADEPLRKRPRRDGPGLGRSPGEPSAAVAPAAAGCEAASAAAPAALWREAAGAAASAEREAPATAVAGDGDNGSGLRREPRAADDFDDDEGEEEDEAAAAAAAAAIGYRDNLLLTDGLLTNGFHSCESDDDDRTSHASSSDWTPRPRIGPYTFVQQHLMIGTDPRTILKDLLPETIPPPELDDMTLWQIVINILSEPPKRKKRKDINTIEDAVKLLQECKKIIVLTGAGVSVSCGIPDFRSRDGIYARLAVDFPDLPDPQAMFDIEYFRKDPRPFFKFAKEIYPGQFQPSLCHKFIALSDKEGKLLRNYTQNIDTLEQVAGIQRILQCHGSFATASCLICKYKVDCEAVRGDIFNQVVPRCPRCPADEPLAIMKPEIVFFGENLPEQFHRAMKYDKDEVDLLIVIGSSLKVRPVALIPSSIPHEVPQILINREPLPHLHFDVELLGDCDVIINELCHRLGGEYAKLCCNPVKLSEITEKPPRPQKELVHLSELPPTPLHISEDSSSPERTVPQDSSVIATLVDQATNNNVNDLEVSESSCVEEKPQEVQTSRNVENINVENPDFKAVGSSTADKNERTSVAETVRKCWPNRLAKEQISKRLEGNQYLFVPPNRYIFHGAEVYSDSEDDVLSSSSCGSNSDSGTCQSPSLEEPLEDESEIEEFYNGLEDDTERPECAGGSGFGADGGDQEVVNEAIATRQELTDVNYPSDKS", "experiment": "EX 527 effect on FGF6-induced UCP1 and PTGS2 expression in WT-1 preadipocytes", "type": "cell-based, murine", "details": "50 uM pretreatment 3 hours, then EX and FGF6 18 hours", "description": "(§1) To determine if the […] pathway is utilized by FGF6 to regulate UCP1 expression and mitochondrial function, WT-1 preadipocytes were pretreated with the […] selective inhibitor EX (EX 527; Santa Cruz Biotechnology) at concentrations of 0 uM or 50 uM in growth media (DMEM+10% FBS) for 3 hours. Following EX treatment, the cells were treated with EX and FGF6 for 18 hours."}, "Sirt2": {"molecular_target": "T2, Sirt2 (Mus musculus, UniProt Q923E4)", "T2 construct": "endogenous in cells; host or cells: WT-1 murine brown preadipocytes", "T2 sequence (Q923E4 2-737 limits assumed)": "T1 sequence (Q923E4 2-737 limits assumed)", "experiment": "EX 527 effect on FGF6-induced UCP1 and PTGS2 expression in WT-1 preadipocytes", "type": "cell-based, murine", "details": "50 uM pretreatment 3 hours, then EX and FGF6 18 hours", "description": "as §1"}}, "note": "Entries after “also recorded” stand apart in the source; their conditions may differ.", "data": [{"molecule": "NC(=O)C1CCCc2c1[nH]c1ccc(Cl)cc21", "note": "(centres unmarked) [EX]", "values": [{"measurement": "FGF6-induced PTGS2 expression level", "setting": "[1]", "result": "reduced; also recorded: suppression"}, {"measurement": "FGF6-induced UCP1 mRNA expression", "setting": "Sirt2", "result": "inhibited UCP1 expression; also recorded: suppression"}]}]}
